# Data as given in patent publication US9505709B2, “Compositions and methods relating to ionic salts of peptides” (Thetis Pharmaceuticals LLC, priority 2014, dated 2016).
# Peptide text beside a SMILES is read from it.
# Legend:
# [1] = Stability analysis by 1H NMR of samples exposed to air and light; conditions: ambient temperature
# Experimental: Stability analysis was performed using 1H NMR (400 MHz) with acetic acid-d4 at various time point (typically days 1, 14, 30 and 60) using samples exposed to air and light at ambient temperature (clear vials with no caps).
# [2] = Oral pharmacokinetics (oral gavage), plasma free EPA or free DHA; type: in vivo, Sprague-Dawley rats; conditions: oral gavage 40 mg/kg, rat
# Experimental: Experiments via Oral Gavage: Oral pharmacokinetic parameters of TP-212 (Lysyl-Lysine Bis-EPA), TP-312 (Lysyl-Lysine Bis-DHA), EPA-EE, EPA FFA and DHA FFA were determined in Sprague-Dawley rats. EPA-EE is 97% pure ethyl ester form of eicosapentaenoic acid. It is the principal polyunsaturated fatty acid in Vascepa, an Omega-3 compound approved in the U.S. for the treatment of severe hypertriglyceridemia. EPA FFA is 97% pure free fatty acid form of eicosapentaenoic acid and DHA FFA is 98% pure free fatty acid DHA. EPA FFA and DHA FFA are the two principal poly-unsaturated fatty acids in Epanova, an Omega-3 compound approved in the U.S. for the treatment of severe hypertriglyceridemia. The subject drugs were administered by oral gavage as an aqueous solution in de-ionized water to 6 Sprague-Dawley rats per group (3 males and 3 females). Rats were dosed at 40 mg/kg. Blood samples were obtained from each rat by jugular vein catheter. Samples were collected at pre-dose and at 0.25, 0.5, 1, 2, 4, 8, 12 and 18 hours post dose. Blood samples were centrifuged to separate red blood cells and the resulting plasma samples were analyzed for free EPA or free DHA. Free EPA or […] extracted from rat plasma with hexane at acidic condition without hydrolysis. Detection was by MS-MS monitoring of negative ion for EPA or DHA. Calculated pharmacokinetic values are mean values from 6 rats for each study drug.
# For all figures and tables, the data are adjusted as follows for comparative purposes. First, the actual plasma levels are baseline adjusted. Thus, for each study arm, the pre-dose level (time=0) is subtracted from the actual plasma levels at each time point, with negative values adjusted to zero. Second, these baseline adjusted values are further adjusted to be molar dose equivalent on a comparative basis among the study arms with respect to EPA or DHA payload (i.e., as if equal amounts of free fatty acid EPA or DHA are administered in each study arm).
# [3] = 0 h (pre-dose), molar dose equivalent, baseline adjusted
# [4] = 0.25 h (15 min), molar dose equivalent, baseline adjusted
# [5] = 0.5 h (30 min), molar dose equivalent, baseline adjusted
# [6] = 1 h (60 min), molar dose equivalent, baseline adjusted
# [7] = 2 h (120 min), molar dose equivalent, baseline adjusted
# [8] = 4 h (240 min), molar dose equivalent, baseline adjusted
# [9] = 8 h, molar dose equivalent, baseline adjusted
# [10] = 12 h, molar dose equivalent, baseline adjusted
# [11] = 18 h, molar dose equivalent, baseline adjusted
# [12] = molar dose equivalent, baseline adjusted
structure (smiles),measurement,setting,value
CCC=CCC=CCC=CCC=CCC=CCC=CCCC(=O)O.CCC=CCC=CCC=CCC=CCC=CCC=CCCC(=O)O.N=C(N)NCCCC(N)C(=O)NC(CCCNC(=N)N)C(=O)O [Arginyl-arginine Bis-DHA],Stability by NMR (amount of sample remaining relative to original sample),[1]; Day 3,1 (1 = >95%)
same,Stability by NMR (amount of sample remaining relative to original sample),[1]; Day 14,1 (1 = >95%)
same,Stability by NMR (amount of sample remaining relative to original sample),[1]; Day 30,1 (1 = >95%)
same,Stability by NMR (amount of sample remaining relative to original sample),[1]; Day 60,1 (1 = >95%)
CCC=CCC=CCC=CCC=CCC=CCCCC(=O)O.CCC=CCC=CCC=CCC=CCC=CCCCC(=O)O.N=C(N)NCCCC(N)C(=O)NC(CCCNC(=N)N)C(=O)O (stereo not drawn) [Arginyl-arginine Bis-EPA] (H-Arg-Arg-OH; configuration not given here),Stability by NMR (amount of sample remaining relative to original sample),[1]; Day 3,1 (1 = >95%)
same,Stability by NMR (amount of sample remaining relative to original sample),[1]; Day 14,1 (1 = >95%)
same,Stability by NMR (amount of sample remaining relative to original sample),[1]; Day 30,1 (1 = >95%)
same,Stability by NMR (amount of sample remaining relative to original sample),[1]; Day 60,1 (1 = >95%)
CCC=CCC=CCC=CCC=CCC=CCC=CCCC(=O)O.CCC=CCC=CCC=CCC=CCC=CCC=CCCC(=O)O.N=C(N)NCCCC(N)C(=O)NC(CCCCN)C(=O)O [Arginyl-lysine Bis-DHA],Stability by NMR (amount of sample remaining relative to original sample),[1]; Day 3,1 (1 = >95%)
same,Stability by NMR (amount of sample remaining relative to original sample),[1]; Day 14,1 (1 = >95%)
same,Stability by NMR (amount of sample remaining relative to original sample),[1]; Day 30,1 (1 = >95%)
same,Stability by NMR (amount of sample remaining relative to original sample),[1]; Day 60,1 (1 = >95%)
CCC=CCC=CCC=CCC=CCC=CCCCC(=O)O.CCC=CCC=CCC=CCC=CCC=CCCCC(=O)O.N=C(N)NCCCC(N)C(=O)NC(CCCCN)C(=O)O [Arginyl-lysine Bis-EPA],Stability by NMR (amount of sample remaining relative to original sample),[1]; Day 3,1 (1 = >95%)
same,Stability by NMR (amount of sample remaining relative to original sample),[1]; Day 14,1 (1 = >95%)
same,Stability by NMR (amount of sample remaining relative to original sample),[1]; Day 30,1 (1 = >95%)
same,Stability by NMR (amount of sample remaining relative to original sample),[1]; Day 60,1 (1 = >95%)
"CC/C=C\C/C=C\C/C=C\C/C=C\C/C=C\CCCC(=O)O.NCCCC[C@H](NC(=O)[C@@H](N)CCCCN)C(=O)O.O=C(O)c1cccnc1 [Compound 7, (L,L) Lysyl-lysine EPA niacin]",Stability by NMR (amount of sample remaining relative to original sample),[1]; Day 3,1 (1 = >95%)
same,Stability by NMR (amount of sample remaining relative to original sample),[1]; Day 14,1 (1 = >95%)
same,Stability by NMR (amount of sample remaining relative to original sample),[1]; Day 30,1 (1 = >95%)
same,Stability by NMR (amount of sample remaining relative to original sample),[1]; Day 60,1 (1 = >95%)
"CC/C=C\C/C=C\C/C=C\C/C=C\C/C=C\C/C=C\CCC(=O)O [DHA-FFA, DHA]",Tmax (free DHA),[2],4 h
same,Plasma level of free DHA,[2]; [3],0.0 µg/mL
same,Plasma level of free DHA,[2]; [4],0.0 µg/mL
same,Plasma level of free DHA,[2]; [5],1.8 µg/mL
same,Plasma level of free DHA,[2]; [6],1.8 µg/mL
same,Plasma level of free DHA,[2]; [7],2.2 µg/mL
same,Plasma level of free DHA,[2]; [8],3.4 µg/mL
same,Plasma level of free DHA,[2]; [9],1.7 µg/mL
same,Plasma level of free DHA,[2]; [10],2.1 µg/mL
same,Plasma level of free DHA,[2]; [11],1.2 µg/mL
same,AUC 0-1 hrs (free DHA),[2]; [12],1.1 µg·h/mL
same,AUC 0-4 hrs (free DHA),[2]; [12],8.7 µg·h/mL
same,AUC 0-18 hrs (free DHA),[2]; [12],36.3 µg·h/mL
same,Cmax (free DHA),[2]; [12],3.4 µg/mL
CC/C=C\C/C=C\C/C=C\C/C=C\C/C=C\CCCC(=O)OCC [EPA ethyl ester],Stability by NMR (amount of sample remaining relative to original sample),[1]; Day 3,1 (1 = >95%)
same,Stability by NMR (amount of sample remaining relative to original sample),[1]; Day 14,1-2
same,Stability by NMR (amount of sample remaining relative to original sample),[1]; Day 30,4 (4 = <50%)
same,Stability by NMR (amount of sample remaining relative to original sample),[1]; Day 60,4 (4 = <50%)
same,Tmax (free EPA),[2],4 h
same,Plasma level of free EPA,[2]; [3],0.0 µg/mL
same,Plasma level of free EPA,[2]; [4],0.3 µg/mL
same,Plasma level of free EPA,[2]; [5],0.5 µg/mL
same,Plasma level of free EPA,[2]; [6],0.7 µg/mL
same,Plasma level of free EPA,[2]; [7],0.8 µg/mL
same,Plasma level of free EPA,[2]; [8],1.1 µg/mL
same,Plasma level of free EPA,[2]; [9],0.5 µg/mL
same,Plasma level of free EPA,[2]; [10],0.0 µg/mL
same,Plasma level of free EPA,[2]; [11],0.0 µg/mL
same,AUC 0-18 hrs (free EPA),[2]; [12],7.2 µg·h/mL
same,Cmax (free EPA),[2]; [12],1.1 µg/mL
"CC/C=C\C/C=C\C/C=C\C/C=C\C/C=C\CCCC(=O)O [EPA-FFA, eicosapentaenoic acid]",Tmax,"[2]; both sexes, Sprague-Dawley, plasma",0.5 h
same,concentration at 0 h,"[2]; both sexes, Sprague-Dawley, plasma, 0 h (pre-dose), molar dose equivalent, baseline adjusted, read-out: Plasma level of free EPA",0 µg/mL
same,concentration at 0.25 h,"[2]; both sexes, Sprague-Dawley, plasma, 0.25 h (15 min), molar dose equivalent, baseline adjusted, read-out: Plasma level of free EPA",0 µg/mL
same,concentration at 0.5 h,"[2]; both sexes, Sprague-Dawley, plasma, 0.5 h (30 min), molar dose equivalent, baseline adjusted, read-out: Plasma level of free EPA",1.3 µg/mL
same,concentration at 1 h,"[2]; both sexes, Sprague-Dawley, plasma, 1 h (60 min), molar dose equivalent, baseline adjusted, read-out: Plasma level of free EPA",0.5 µg/mL
same,concentration at 2 h,"[2]; both sexes, Sprague-Dawley, plasma, 2 h (120 min), molar dose equivalent, baseline adjusted, read-out: Plasma level of free EPA",0.8 µg/mL
same,concentration at 4 h,"[2]; both sexes, Sprague-Dawley, plasma, 4 h (240 min), molar dose equivalent, baseline adjusted, read-out: Plasma level of free EPA",1.1 µg/mL
same,concentration at 8 h,"[2]; both sexes, Sprague-Dawley, plasma, 8 h, molar dose equivalent, baseline adjusted, read-out: Plasma level of free EPA",0.9 µg/mL
same,concentration at 12 h,"[2]; both sexes, Sprague-Dawley, plasma, 12 h, molar dose equivalent, baseline adjusted, read-out: Plasma level of free EPA",0.3 µg/mL
same,concentration at 18 h,"[2]; both sexes, Sprague-Dawley, plasma, 18 h, molar dose equivalent, baseline adjusted, read-out: Plasma level of free EPA",0 µg/mL
same,AUC 0-1 hrs (free EPA),[2]; [12],0.6 µg·h/mL
same,AUC 0-4 hrs (free EPA),[2]; [12],3.1 µg·h/mL
same,AUC 0-18 hrs (free EPA),[2]; [12],10.5 µg·h/mL
same,Cmax (free EPA),[2]; [12],1.3 µg/mL
